# Experimental data published in article PMC11596392, “Enhanced Antibacterial, Anti-Inflammatory, and Antibiofilm Activities of Tryptophan-Substituted Peptides Derived from Cecropin A-Melittin Hybrid Peptide BP100” (Molecules, 2024).
# Where no end group is shown, it is not given here.
# Tests used:
# [1] = test system: MDRPA (CCARM 2109); assay type: cell-based, multidrug-resistant Pseudomonas aeruginosa; conditions: broth microdilution in MHB, 37 °C, 24 h, 100% inhibition of growth
# Protocol: (§1) The antibacterial efficacy of the synthesized peptides was evaluated by determining the minimal inhibitory concentrations (MICs) against six standard bacterial strains and five drug-resistant bacterial strains using the Clinical and Laboratory Standards Institute (CLSI) microdilution method. Melittin served as the positive control.
# (§2) The minimal inhibitory concentrations (MICs) of the peptides against bacterial strains were determined using a modified broth-microdilution method in accordance with the National Committee for Clinical Laboratory Standards (NCCLS) guidelines. Overnight cultures were diluted in cation-adjusted Mueller–Hinton Broth (MHB) to achieve an inoculum density of 2 × 10^6 CFU/mL. A two-fold serial dilution of the peptide solution (100 μL) was introduced into microtiter plates, followed by the addition of 100 μL of bacterial suspension. The plates were then incubated at 37 °C for 24 h to determine the MICs. Wells containing only culture media served as negative controls, while those with added bacteria functioned as positive controls. The MIC, expressed in μM, was defined as the lowest peptide concentration that prevented visible bacterial growth. This protocol was also employed to determine MICs in the presence of physiological salts (150 mM of NaCl, 4.5 mM of KCl, 6 μM of NH4Cl, 1 mM of MgCl2, 2.5 mM of CaCl2, and 4 μM of FeCl3) and 20% human serum to assess the peptides’ efficacy under conditions more closely resembling physiological environments. All experiments were conducted in triplicate and repeated three times independently to ensure reproducibility and statistical significance of the results.
# [2] = test system: MDRPA (CCARM 2095); assay type: cell-based, multidrug-resistant Pseudomonas aeruginosa; conditions: broth microdilution in MHB, 37 °C, 24 h, 100% inhibition of growth
# Protocol: as §1, §2
# [3] = test system: S. typhimurium (KCTC 1926); assay type: cell-based, Salmonella typhimurium; conditions: broth microdilution in MHB, 37 °C, 24 h, 100% inhibition of growth
# Protocol: as §1, §2
# [4] = test system: S. epidermidis (KCTC 1917); assay type: cell-based, Staphylococcus epidermidis; conditions: broth microdilution in MHB, 37 °C, 24 h, 100% inhibition of growth
# Protocol: as §1, §2
# [5] = test system: VREF (ATCC 51559); assay type: cell-based, vancomycin-resistant Enterococcus faecium; conditions: broth microdilution in MHB, 37 °C, 24 h, 100% inhibition of growth
# Protocol: as §1, §2
# [6] = test system: S. aureus (KCTC 1621); assay type: cell-based, Staphylococcus aureus; conditions: broth microdilution in MHB, 37 °C, 24 h, 100% inhibition of growth
# Protocol: as §1, §2
# [7] = test system: E. coli (KCTC 1682); assay type: cell-based, Escherichia coli; conditions: broth microdilution in MHB, 37 °C, 24 h, 100% inhibition of growth
# Protocol: as §1, §2
# [8] = test system: sheep red blood cells (sRBCs); assay: Hemolytic activity assay; assay type: cell-based; conditions: 4% (v/v) sheep red blood cells in PBS, 1 h, 37 °C; 1 to 256 μM tested
# Protocol: To assess toxicity in mammalian cells, we evaluated the hemolytic activity of the peptides on sheep red blood cells (sRBCs). […] The therapeutic index (TI), a measure commonly employed to evaluate the cell selectivity of antibacterial agents, was calculated as the ratio of the concentration causing 10% hemolysis of sRBCs (HC10) to the GM [19, 20, 21, 22].
# The hemolytic activity of the peptides was tested through hemolysis assay of sheep red blood cells (sRBCs). The sRBCs were diluted in PBS to achieve a 4% (v/v) concentration. Subsequently, 100 μL of peptide solutions, ranging from 1 to 256 μM, was dispensed into a 96-well plate containing an equal volume of the erythrocyte suspension. After incubating for 1 h at 37 °C and centrifuging at 1000× g for 10 min, 100 μL of the supernatant was transferred to a new 96-well plate. Hemoglobin release was quantified using a microplate reader at a wavelength of […]. The percentage of hemolysis was calculated using percentage hemolysis = 100 × [[…]], where A represents the absorbance of the peptide-treated sample at 540 nm, A0 corresponds to the absorbance value representing 0% hemolysis in PBS, and At corresponds to the absorbance value representing 100% hemolysis in 0.1% Triton X-100.
# [9] = test system: preformed MDRPA (CCARM 2095) biofilms; assay type: cell-based, multidrug-resistant Pseudomonas aeruginosa; conditions: 24 h treatment; for MBEC50: 50% eradication; for MBEC90: 90% eradication
# Protocol: While preventing biofilm formation on surfaces is crucial, treating established biofilm infections presents a significant challenge due to the extracellular polymeric substance (EPS) matrix hindering antibiotic penetration and the high cell density within mature biofilms. To address this challenge, we evaluated the ability of BP100 and its analogs to eradicate established MDRPA biofilms over a 24 h period. The minimum biofilm eradication concentration (MBEC90) was determined using crystal violet staining as the lowest concentration that reduced biomass by more than 90%. Among these peptides, BP5, BP6, BP7, BP8, BP9, BP11, and BP13 eradicated preformed MDRPA biofilms by more than 90% at a concentration of 8 μM (Figure 3c,d and Table 3).
# The minimal biofilm eradication concentration (MBEC) for peptides against the multidrug-resistant Pseudomonas aeruginosa (MDRPA) (CCARM 2095) strain was assessed using the Calgary Biofilm Device (CBD), supplied by Innovotech, Edmonton, AB, Canada. A bacterial suspension with a density of (1 × 10^6) CFU/mL in (150 µL) of Luria–Bertani (LB) media was dispensed into each well of a 96-well microtiter plate, which was equipped with a peg lid (Innovotech, product code: 19111). This plate was incubated at 37 °C for 24 h with agitation at 110 rpm, promoting biofilm formation on the pegs. Subsequently, the peg lid was washed with phosphate-buffered saline (PBS, 0.01 M) and relocated to a fresh plate containing varying peptide concentrations (200 µL per well). The biofilms were then subjected to these peptides under the same incubation conditions. After another PBS rinse, the peg lid was moved to a recovery plate filled with (200 µL) of LB media per well. To detach the biofilms from the pegs, the recovery plate underwent sonication in a water bath for 10 to 15 min. Finally, the recovery plate was incubated at 37 °C for 24 h with agitation at 110 rpm, allowing any surviving bacteria to proliferate and cause turbidity. The MBEC is defined as the lowest concentration of peptides that inhibited turbidity formation in the recovery plate in comparison to sterility controls. This experiment was conducted in triplicate, and the median value from each trial was recorded.
Compound,Minimal Inhibitory Concentration (MIC) [1],Minimal Inhibitory Concentration (MIC) [2],Minimal Inhibitory Concentration (MIC) [3],Minimal Inhibitory Concentration (MIC) [4],Minimal Inhibitory Concentration (MIC) [5],Minimal Inhibitory Concentration (MIC) [6],Minimal Inhibitory Concentration (MIC) [7],HC10 (peptide concentration that caused 10% hemolysis) [8],MBEC50 [9],MBEC90 [9]
CC[C@H](C)[C@H](NC(=O)[C@H](CCCCN)NC(=O)[C@H](CCCCN)NC(=O)[C@H](Cc1c[nH]c2ccccc12)NC(=O)[C@H](CC(C)C)NC(=O)[C@H](CCCCN)NC(=O)[C@@H](N)CCCCN)C(=O)N[C@@H](CC(C)C)C(=O)N[C@@H](CCCCN)C(=O)N[C@@H](Cc1ccc(O)cc1)C(=O)N[C@@H](CC(C)C)C(N)=O [BP1],16 µM,16 µM,8 µM,8 µM,64 µM,8 µM,8 µM,>256 µM,8 µM,16 µM
CC(C)C[C@H](NC(=O)[C@H](Cc1ccc(O)cc1)NC(=O)[C@H](CCCCN)NC(=O)[C@H](CC(C)C)NC(=O)[C@H](Cc1c[nH]c2ccccc12)NC(=O)[C@H](CCCCN)NC(=O)[C@H](CCCCN)NC(=O)[C@H](Cc1ccccc1)NC(=O)[C@H](CC(C)C)NC(=O)[C@H](CCCCN)NC(=O)[C@@H](N)CCCCN)C(N)=O [BP2],4 µM,8 µM,8 µM,2 µM,128 µM,4 µM,2 µM,>256 µM,16 to 32 µM,32 µM
CC[C@H](C)[C@H](NC(=O)[C@H](CCCCN)NC(=O)[C@H](CCCCN)NC(=O)[C@H](Cc1ccccc1)NC(=O)[C@H](CC(C)C)NC(=O)[C@H](CCCCN)NC(=O)[C@@H](N)CCCCN)C(=O)N[C@@H](Cc1c[nH]c2ccccc12)C(=O)N[C@@H](CCCCN)C(=O)N[C@@H](Cc1ccc(O)cc1)C(=O)N[C@@H](CC(C)C)C(N)=O [BP3],16 µM,16 µM,4 µM,8 µM,64 µM,8 µM,8 µM,>256 µM,16 µM,32 µM
CC[C@H](C)[C@H](NC(=O)[C@H](CCCCN)NC(=O)[C@H](CCCCN)NC(=O)[C@H](Cc1ccccc1)NC(=O)[C@H](CC(C)C)NC(=O)[C@H](CCCCN)NC(=O)[C@@H](N)CCCCN)C(=O)N[C@@H](CC(C)C)C(=O)N[C@@H](CCCCN)C(=O)N[C@@H](Cc1c[nH]c2ccccc12)C(=O)N[C@@H](CC(C)C)C(N)=O [BP4],16 µM,8 µM,2 µM,8 µM,16 µM,4 µM,4 µM,>256 µM,8 µM,32 µM
CC[C@H](C)[C@H](NC(=O)[C@H](CCCCN)NC(=O)[C@H](CCCCN)NC(=O)[C@H](Cc1ccccc1)NC(=O)[C@H](CC(C)C)NC(=O)[C@H](CCCCN)NC(=O)[C@@H](N)CCCCN)C(=O)N[C@@H](CC(C)C)C(=O)N[C@@H](CCCCN)C(=O)N[C@@H](Cc1ccc(O)cc1)C(=O)N[C@@H](CC(C)C)C(N)=O [BP100],16 µM,32 µM,4 µM,4 µM,64 µM,4 µM,4 µM,>256 µM,16 to 32 µM,32 µM
KKLFKKILKWW-NH2 [BP12],16 µM,16 µM,4 µM,4 µM,128 µM,4 µM,8 µM,>256 µM,8 to 16 µM,16 µM
KKLFKKIWKWL-NH2 [BP11],16 µM,8 µM,2 µM,4 µM,16 µM,4 µM,8 µM,>256 µM,4 to 8 µM,8 µM
KKLFKKWLKYW-NH2 [BP10],16 µM,16 µM,8 µM,8 µM,128 µM,8 µM,8 µM,>256 µM,8 to 16 µM,16 µM
KKLFKKWWKWL-NH2 [BP16],32 µM,32 µM,16 µM,16 µM,64 µM,16 µM,16 µM,>256 µM,16 µM,32 µM
KKLFKKWWKYL-NH2 [BP9],16 µM,16 µM,4 µM,4 µM,64 µM,8 µM,4 µM,>256 µM,4 µM,8 µM
